Data taken from ChEMBL document CHEMBL1135674, “A new series of estrogen receptor modulators that display selectivity for estrogen receptor beta” (J Med Chem, 2002).
Active and inactive are the calls of the source. The calls are words filed in the database; no cut-off is given here.

What was measured:
[1] = target: T1, Estrogen receptor beta (Homo sapiens, UniProt Q92731)
[2] = target: T2, Estrogen receptor (Homo sapiens, UniProt P03372)
T2 sequence (P03372 whole entry): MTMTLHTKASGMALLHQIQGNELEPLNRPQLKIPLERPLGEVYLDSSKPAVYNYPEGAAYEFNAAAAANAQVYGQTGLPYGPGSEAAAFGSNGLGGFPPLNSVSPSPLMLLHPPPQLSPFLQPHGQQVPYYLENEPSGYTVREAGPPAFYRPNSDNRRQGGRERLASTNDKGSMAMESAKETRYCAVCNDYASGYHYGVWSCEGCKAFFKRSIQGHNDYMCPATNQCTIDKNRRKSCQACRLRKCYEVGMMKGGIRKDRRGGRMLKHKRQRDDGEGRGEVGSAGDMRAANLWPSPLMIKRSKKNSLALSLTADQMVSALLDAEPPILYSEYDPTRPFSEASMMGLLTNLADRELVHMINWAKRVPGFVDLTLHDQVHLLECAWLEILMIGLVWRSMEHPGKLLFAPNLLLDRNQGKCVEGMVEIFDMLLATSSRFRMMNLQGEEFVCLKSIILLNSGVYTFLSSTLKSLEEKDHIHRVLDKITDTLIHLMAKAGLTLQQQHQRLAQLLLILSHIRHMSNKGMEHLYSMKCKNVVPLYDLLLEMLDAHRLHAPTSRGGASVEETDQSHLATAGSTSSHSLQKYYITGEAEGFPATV

[3] = target: T1, Estrogen receptor beta; details: T47D, 10e-4 M
[4] = target: T1, Estrogen receptor beta; details: T47D
[5] = target: T1, Estrogen receptor beta; remark: listed apart in the source
[6] = target: T2, Estrogen receptor; remark: listed apart in the source
[7] = target: T2, Estrogen receptor; remark: listed apart in the source
[8] = target: T1, Estrogen receptor beta; details: T47D; remark: listed apart in the source

T1 sequence (Q92731 whole entry): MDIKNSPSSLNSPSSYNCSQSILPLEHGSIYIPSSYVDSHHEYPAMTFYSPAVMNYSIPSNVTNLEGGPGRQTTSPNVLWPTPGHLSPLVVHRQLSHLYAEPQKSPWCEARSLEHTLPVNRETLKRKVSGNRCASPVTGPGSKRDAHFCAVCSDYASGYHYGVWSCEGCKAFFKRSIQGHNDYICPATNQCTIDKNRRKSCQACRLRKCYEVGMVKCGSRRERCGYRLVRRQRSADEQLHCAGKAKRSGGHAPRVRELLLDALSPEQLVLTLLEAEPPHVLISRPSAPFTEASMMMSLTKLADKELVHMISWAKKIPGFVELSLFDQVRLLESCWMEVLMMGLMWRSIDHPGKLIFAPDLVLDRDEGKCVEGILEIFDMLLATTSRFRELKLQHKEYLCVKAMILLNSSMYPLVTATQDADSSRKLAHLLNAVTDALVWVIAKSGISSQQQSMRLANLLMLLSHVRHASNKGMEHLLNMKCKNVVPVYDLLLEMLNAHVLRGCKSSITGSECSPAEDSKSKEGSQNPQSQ

| SMILES | Ki [1] [nM] | Ki [2] [nM] | other results |
| --- | --- | --- | --- |
| CN(CCCC1CCCCC1)c1nc(NCCc2ccc(O)cc2)nc(N2CCNCC2)n1 | 820 | 1420 |  |
| CN(CCCc1ccc2c(c1)OCO2)c1nc(NCCc2ccc(O)cc2)nc(N2CCNCC2)n1 | 30 | 560 |  |
| CC(C)S(=O)(=O)N1CCN(c2nc(NCCc3ccc(O)cc3)nc(N(C)CCCc3ccc(Cl)cc3)n2)CC1 | 600 | > 10000 |  |
| CN1CCN(c2nc(NCCc3ccc(O)cc3)nc(NC3CCc4ccccc43)n2)CC1 (stereo not given) | > 10000 | > 10000 |  |
| CN(CCCc1ccc(C(F)(F)F)cc1)c1nc(NCCc2ccc(O)cc2)nc(N2CCNCC2)n1 | 75 | 480 |  |
| CN(CCCc1ccc(C#N)cc1)c1nc(NCCc2ccc(O)cc2)nc(N2CCNCC2)n1 | 90 | 570 |  |
| CCC(=O)CCN1CCN(c2nc(NCCc3ccc(O)cc3)nc(N(C)CCCc3ccc(Cl)cc3)n2)CC1 | 40 | 250 |  |
| Oc1ccc(CCNc2nc(NC/C=C/c3ccccc3)nc(N3CCNCC3)n2)cc1 | 4200 | 6870 |  |
| CN(CCCc1ccc(Cl)cc1)c1nc(NCCc2ccc(O)cc2)nc(N2C[C@@H]3C[C@H]2CN3)n1 | 105 | 2280 |  |
| C=CCN1CCN(c2nc(NCCc3ccc(O)cc3)nc(N(C)CCCc3ccc(Cl)cc3)n2)CC1 | 30 | 360 |  |
| CN(CCCc1ccc(F)c(F)c1)c1nc(NCCc2ccc(O)cc2)nc(N2CCNCC2)n1 | 20 | 200 |  |
| CN(CCCc1ccc(Cl)cc1)c1nc(NCCc2ccc(O)cc2)nc(N2CCN(C3CCCC3)CC2)n1 | 40 | 180 |  |
| CN(CCCc1ccc(Cl)cc1)c1nc(NCCc2ccc(O)cc2)nc(N2CCN(CC(=O)c3ccccc3)CC2)n1 | 200 | 2040 |  |
| Oc1ccc(CCNc2nc(NCCCc3ccccc3)nc(N3CCNCC3)n2)cc1 | 200 | 1380 |  |
| CN(CCCc1ccc(Cl)cc1)c1nc(NCCc2ccc(O)cc2)nc(N2CCN(C(=O)COc3ccccc3)CC2)n1 | 100 | 570 |  |
| CN(CCCc1ccc(Cl)cc1)c1nc(NCCc2ccc(O)cc2)nc(N2CCN(c3ccccc3)CC2)n1 | 890 | 6320 |  |
| CN(CCCc1ccc(Cl)cc1)c1nc(NCCc2ccc(O)cc2)nc(N2CCN(S(=O)(=O)/C=C/c3ccccc3)CC2)n1 | 225 | 1300 |  |
| CN(CCCc1ccc(Cl)cc1)c1nc(NCCc2ccc(O)cc2)nc(N2CCN(S(=O)(=O)Cc3ccccc3)CC2)n1 | 490 | 1450 |  |
| CN1CCN(c2nc(NCCc3ccc(O)cc3)nc(N(C)CCCc3ccc(Cl)cc3)n2)CC1 | 15 | 145 |  |

| SMILES | Ki [1] [nM] | Ki [2] [nM] | other results |
| --- | --- | --- | --- |
| CN(CCCc1ccc(Cl)cc1)c1nc(NCCc2ccc(O)cc2)nc(N2CCN(C(=O)Nc3ccc(Cl)cc3)CC2)n1 | 425 | 855 |  |
| CN1CCN(c2nc(NCCCc3ccccc3)nc(N3CCc4cc(O)ccc4C3)n2)CC1 | > 10000 | > 10000 |  |
| O=C(c1ccc(OCCN2CCCCC2)cc1)c1c(-c2ccc(O)cc2)sc2cc(O)ccc12 |  |  | IA [3]: inactive |
| CN(CCCc1ccc(Cl)cc1)c1nc(NCCc2ccc(O)cc2)nc(N2CCN(Cc3ccccn3)CC2)n1 | 50 |  |  |
| CN(CCCc1ccc(Cl)cc1)c1nc(NCCc2ccc(O)cc2)nc(N2CCN(Cc3ccccc3)CC2)n1 | 8 | 120 |  |
| CN(CCCc1ccc(Cl)cc1)c1nc(NCCc2ccc(O)cc2)nc(N2CCN(CCO)CC2)n1 | 15 | 395 | IA [4]: inactive; IC50 [5]: 15 nM; IC50 [6]: 30 nM; EC50 [7]: 180 nM |
| CN(CCCc1ccc(Cl)cc1)c1nc(NCCc2ccc(O)cc2)nc(N2CCN(C(=O)CCc3ccccc3)CC2)n1 | 110 | 1050 |  |
| CN(CCCc1ccccc1Cl)c1nc(NCCc2ccc(O)cc2)nc(N2CCNCC2)n1 | 40 | 680 |  |
| Oc1ccc(CCNc2nc(NCCc3ccccc3)nc(N3CCNCC3)n2)cc1 | 1750 | 2370 |  |
| CN(CCCc1ccc(Cl)cc1)c1nc(NCCc2ccc(O)cc2)nc(N2CCN(CC(=O)C(C)(C)C)CC2)n1 | 210 | 1020 |  |
| CN1CCN(c2nc(NCCCCc3ccccc3)nc(NCCc3ccc(O)cc3)n2)CC1 | 490 | 415 |  |
| CN1CCN(c2nc(NCCCc3ccccc3)nc(NCCc3ccc(O)cc3)n2)CC1 | 490 | 3240 |  |
| CN1CCN(c2nc(NCCc3ccc(O)cc3)nc(OCCCc3ccccc3)n2)CC1 | 1000 | 2400 |  |
| CN(CCCc1ccc(Cl)cc1)c1nc(NCCc2ccc(O)cc2)nc(N2CCN(Cc3ccncc3)CC2)n1 | 115 | 810 |  |
| Oc1ccc(CCNc2nc(SCCOc3ccc(Cl)cc3)nc(N3CCNCC3)n2)cc1 | 90 | 570 |  |
| CN(CCCc1ccc(Cl)cc1Cl)c1nc(NCCc2ccc(O)cc2)nc(N2CCNCC2)n1 | 25 | 125 |  |
| CN(CCCc1ccc(Cl)cc1)c1nc(NCCc2ccc(O)cc2)nc(N2CCN(Cc3cccnc3)CC2)n1 | 35 |  |  |
| CN(CCCc1ccc(F)cc1)c1nc(NCCc2ccc(O)cc2)nc(N2CCNCC2)n1 | 15 | 380 | IA [4]: inactive; IC50 [5]: 15 nM; IC50 [6]: 240 nM; EC50 [7]: 200 nM |
| CN1CCN(c2nc(NCCCc3ccccc3)nc(N3CCCC(c4ccc(O)cc4)C3)n2)CC1 (stereo not given) | > 10000 | > 10000 |  |

| SMILES | Ki [1] [nM] | Ki [2] [nM] | other results |
| --- | --- | --- | --- |
| CN1CCN(c2nc(NCCc3ccc(O)cc3)nc(SCCCc3ccccc3)n2)CC1 | 50 | 270 |  |
| CN(CCCc1ccc(Cl)cc1)c1nc(NCCc2ccc(O)cc2)nc(N2CCN(C(=O)N3CCOCC3)CC2)n1 | 400 | 2360 |  |
| Cc1ccc(CCCN(C)c2nc(NCCc3ccc(O)cc3)nc(N3CCNCC3)n2)cc1 | 100 | 1140 |  |
| CN1CCN(c2nc(NCCCc3ccccc3)nc(NC3CCc4ccc(O)cc4C3)n2)CC1 (stereo not given) | > 10000 | > 10000 |  |
| Oc1ccc(CCNc2nc(NCCCc3ccc(Cl)cc3)nc(N3CCNCC3)n2)cc1 | 55 | 200 |  |
| CN1CCN(c2nc(NCCCc3ccccc3)nc(NC3CCc4cc(O)ccc4C3)n2)CC1 (stereo not given) | 170 | 1000 |  |
| Cc1nc(CN2CCN(c3nc(NCCc4ccc(O)cc4)nc(N(C)CCCc4ccc(Cl)cc4)n3)CC2)cs1 | 25 |  | IA [4]: inactive; IC50 [5]: 5 nM |
| COc1ccc(C(=O)N2CCN(c3nc(NCCc4ccc(O)cc4)nc(N(C)CCCc4ccc(Cl)cc4)n3)CC2)cc1 | 110 | 1130 |  |
| CN(C)C(=O)CN1CCN(c2nc(NCCc3ccc(O)cc3)nc(N(C)CCCc3ccc(Cl)cc3)n2)CC1 | 270 | 3000 |  |
| CN(CCCc1ccc(Cl)cc1)c1nc(NCCc2ccc(O)cc2)nc(N2CCNCC2)n1 | 15 | 300 | IA [8]: inactive; IC50 [5]: 5 nM; IC50 [6]: 110 nM; EC50 [7]: 180 nM |
| CCN(CC)C(=O)N1CCN(c2nc(NCCc3ccc(O)cc3)nc(N(C)CCCc3ccc(Cl)cc3)n2)CC1 | 790 | > 10000 |  |
| CN1CCN(c2nc(NCCCc3ccccc3)nc(NCCc3cccc(O)c3)n2)CC1 | 4250 | > 10000 |  |
| CN(C[C@@H]1C[C@@H]1c1ccccc1)c1nc(NCCc2ccc(O)cc2)nc(N2CCNCC2)n1 (relative stereo) |  |  | IA [4]: inactive |
| Oc1ccc(CCNc2nc(SCCCc3ccc(Cl)cc3)nc(N3CCNCC3)n2)cc1 |  |  | IA [4]: inactive |
| CCN(CCCc1ccc(Cl)cc1)c1nc(NCCc2ccc(O)cc2)nc(N2CCNCC2)n1 | 100 | 830 |  |
| C[C@@H]1CN(c2nc(NCCc3ccc(O)cc3)nc(N(C)CCCc3ccc(Cl)cc3)n2)C[C@H](C)N1 | 15 | 60 |  |
| CN1CCN(c2nc(NCCCc3ccccc3)nc(NCc3ccc(O)cc3)n2)CC1 | 3690 | 5130 |  |
| CN(CCOc1ccc(Cl)cc1)c1nc(NCCc2ccc(O)cc2)nc(N2CCNCC2)n1 | 170 | 1000 |  |
